According to US11702404B2, “GLP-1R modulating compounds” (priority 2019, dated 2023):
Where two headings read alike, the source gives them in different places.

Columns and labels:
GLP-1R = GLP-1R (Homo sapiens, UniProt P43220); assay: GLP-1R activation: cAMP increase in CHO cells stably expressing GLP-1R; assay type: cell-based
[1] = Microsomal stability, human liver microsomes (predicted hepatic clearance); settings: predicted from in vitro microsomal stability data
[2] = cAMP increase, CHO cells stably expressing GLP-1R, 10 point dose response, 30 minutes incubation, read-out: EC50

Sequence of GLP-1R (P43220 24-463): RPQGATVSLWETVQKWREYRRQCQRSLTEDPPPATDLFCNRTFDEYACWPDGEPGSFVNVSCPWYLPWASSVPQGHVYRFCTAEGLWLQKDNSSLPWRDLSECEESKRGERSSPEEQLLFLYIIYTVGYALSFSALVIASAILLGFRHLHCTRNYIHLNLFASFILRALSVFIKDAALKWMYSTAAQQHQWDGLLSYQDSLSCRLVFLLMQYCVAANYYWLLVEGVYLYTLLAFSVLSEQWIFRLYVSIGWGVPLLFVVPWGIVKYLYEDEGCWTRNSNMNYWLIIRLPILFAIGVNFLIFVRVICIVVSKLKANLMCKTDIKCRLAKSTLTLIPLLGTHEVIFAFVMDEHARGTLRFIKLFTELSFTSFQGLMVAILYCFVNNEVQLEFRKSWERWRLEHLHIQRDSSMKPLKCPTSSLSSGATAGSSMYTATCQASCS

SMILES | EC50 (GLP-1R; [2]) [nM] | Predicted Hepatic Clearance (Pred. Cl.) [1] [mL/min/kg] | EC50 (GLP-1R; EC50 (nM)) [nM]
COCCn1c(Cc2ccc(-c3nsc(OCc4ccc(C#N)cc4F)n3)cc2F)nc2ccc(C(=O)O)cc21 [Example 63, 2-{[4-[5-[(4-cyano-2-fluoro-phenyl)methoxy]-1,2,4-thiadiazol-3-yl]-2-fluoro-phenyl]methyl}-3-(2-methoxyethyl)benzimidazole-5-carboxylic acid] | 164 | <1.83 | –
N#Cc1ccc(COc2cccc(-c3ccc(Cc4nc5ccc(C(=O)O)cc5n4CC4(c5ccncc5)CC4)c(F)c3)n2)c(F)c1 [Example 275, 2-(4-(6-((4-cyano-2-fluorobenzyl)oxy)pyridin-2-yl)-2-fluorobenzyl)-1-((1-(pyridin-4-yl)cyclopropyl)methyl)-1H-benzo[d]imidazole-6-carboxylic acid] | 5.51 | 12.2 | –
COCCn1c(Cc2ccc(-c3cccc(OCc4cccc(OC(F)F)c4)n3)cc2F)nc2ccc(C(=O)O)cc21 [Example 505, 2-(4-(6-((3-(difluoromethoxy)benzyl)oxy)pyridin-2-yl)-2-fluorobenzyl)-1-(2-methoxyethyl)-1H-benzo[d]imidazole-6-carboxylic acid] | 41.2 | <1.83 | –
N#CCC1(Cn2c(Cc3cc(F)c(-c4ccc(F)c(OCc5ccc(C#N)cc5F)n4)cc3F)nc3ccc(C(=O)O)cc32)CC1 [Example 153, 2-(4-(6-((4-cyano-2-fluorobenzyl)oxy)-5-fluoropyridin-2-yl)-2,5-difluorobenzyl)-1-((1-(cyanomethyl)cyclopropyl)methyl)-1H-benzo[d]imidazole-6-carboxylic acid] | 0.11 | 5.17 | –
N#Cc1ccc(COc2ncc(F)c(-c3ccc(Cc4nc5c(F)cc(C(=O)O)cc5n4C[C@@H]4CCO4)cc3)n2)c(F)c1 [Example 882] | 0.18 | 6.17 | –
N#Cc1ccc(COc2cccc(-c3ccc(Cc4nc5c(F)cc(C(=O)O)cc5n4CC4(C#N)CC4)c(F)c3)n2)c(F)c1 [Example 315, 2-(4-(6-((4-cyano-2-fluorobenzyl)oxy)pyridin-2-yl)-2-fluorobenzyl)-1-((l-cyanocyclopropyl)methyl)-4-fluoro-1H-benzo[d]imidazole-6-carboxylic acid] | 2.08 | 5.67 | –
CO[C@H]1C[C@H](Cn2c(Cc3cc(F)c(-c4cccc(OCc5ccc(C#N)cc5F)n4)cc3F)nc3ccc(C(=O)O)cc32)C1 [Example 745] | 83.5 | 1.83 | –
COCCn1c(Cc2ccc(-c3cccc(OCc4cccnc4[N+](=O)[O-])n3)cc2F)nc2ccc(C(=O)O)cc21 [Example 596, 2-(2-fluoro-4-(6-((2-nitropyridin-3-yl)methoxy)pyridin-2-yl)benzyl)-1-(2-methoxyethyl)-1H-benzo[d]imidazole-6-carboxylic acid] | 816 | 19.5 | –
CO[C@@H](C)Cn1c(Cc2cc(F)c(-c3cccc(OCc4ccc(C#N)cc4F)n3)cc2F)nc2ccc(C(=O)O)cc21 [Example 587, (S)-2-(4-(6-((4-cyano-2-fluorobenzyl)oxy)pyridin-2-yl)-2,5-difluorobenzyl)-1-(2-methoxypropyl)-1H-benzo[d]imidazole-6-carboxylic acid] | 2.15 | 6.83 | –
N#Cc1ccc(COc2cccc(-c3ccc(Cc4nc5ccc(C(=O)O)cc5n4C[C@@H]4CCO4)cc3F)n2)c(F)c1 [Example 523, (S)-2-(4-(6-((4-cyano-2-fluorobenzyl)oxy)pyridin-2-yl)-3-fluorobenzyl)-1-(oxetan-2-ylmethyl)-1H-benzo[d]imidazole-6-carboxylic acid] | 0.51 | 5 | –
N#Cc1ccc(COc2nccc(-c3ccc(Cc4nc5c(F)cc(C(=O)O)cc5n4C[C@@H]4CCO4)cc3F)n2)c(F)c1 [Example 369, (S)-2-(4-(2-((4-cyano-2-fluorobenzyl)oxy)pyrimidin-4-yl)-3-fluorobenzyl)-4-fluoro-1-(oxetan-2-ylmethyl)-1H-benzo[d]imidazole-6-carboxylic acid] | 0.13 | 4.33 | –
COCCn1c(Cc2cc(F)c(-c3ccc(F)c(OCc4ccc(C#N)cc4F)n3)cc2F)nc2ccc(C(=O)O)cc21 [Example 217, 2-(4-(6-((4-cyano-2-fluorobenzyl)oxy)-5-fluoropyridin-2-yl)-2,5-difluorobenzyl)-1-(2-methoxyethyl)-1H-benzo[d]imidazole-carboxylic acid] | – | 2.75 | 1.72
C[C@@H](C1CC1)n1c(Cc2ccc(-c3cccc(OCc4ccc(C#N)cc4F)n3)cc2F)nc2ccc(C(=O)O)cc21 [Example 220, (S)-2-(4-(6-((4-cyano-2-fluorobenzyl)oxy)pyridin-2-yl)-2-fluorobenzyl)-1-(1-cyclopropylethyl)-1H-benzo[d]imidazole-6-carboxylic acid] | 37.8 | 6.5 | –
COCCn1c(Cc2ccc(-c3cccc(OCc4ccc(Cl)cc4F)n3)cc2F)nc2ccc(C(=O)O)cc21 [Example 478, 2-(4-(6-((4-chloro-2-fluorobenzyl)oxy)pyridin-2-yl)-2-fluorobenzyl)-1-(2-methoxyethyl)-1H-benzo[d]imidazole-6-carboxylic acid] | 9.19 | 3.17 | –
N#Cc1ccc(COc2cccc(-c3cc(F)c(Cc4nc5ccc(C(=O)O)cc5n4Cc4cnns4)cc3F)n2)c(F)c1 [Example 569, 1-((1,2,3-thiadiazol-5-yl)methyl)-2-(4-(6-((4-cyano-2-fluorobenzyl)oxy)pyridin-2-yl)-2,5-difluorobenzyl)-1H-benzo[d]imidazole-6-carboxylic acid] | 10.4 | 17 | –
N#Cc1ccc(COc2cccc(-c3ccc(Cc4nc5ccc(C(=O)O)cc5n4CC4(n5ccnn5)CC4)cc3F)n2)c(F)c1 [Example 457, 1-((1-(1H-1,2,3-triazol-1-yl)cyclopropyl)methyl)-2-(4-(6-((4-cyano-2-fluorobenzyl)oxy)pyridin-2-yl)-3-fluorobenzyl)-1H-benzo[d]imidazole-6-carboxylic acid] | 1.4 | 7.83 | –
COCCn1c(Cc2ccc(-c3cccc(OCc4ccc(C#N)cc4F)n3)c(C)c2)nc2ccc(C(=O)NS(=O)(=O)C3CC3)cc21 [Example 53, 2-(4-(6-((4-cyano-2-fluorobenzyl)oxy)pyridin-2-yl)-3-methylbenzyl)-N-(cyclopropylsulfonyl)-1-(2-methoxyethyl)-1H-benzo[d]imidazole-6-carboxamide] | 1010 | 9 | –
N#Cc1ccc(COc2cccc(-c3ccc(Cc4nc5c(F)cc(C(=O)O)cc5n4CC4(C(F)F)CC4)c(F)c3)n2)c(F)c1 [Example 297, 2-(4-(6-((4-cyano-2-fluorobenzyl)oxy)pyridin-2-yl)-2-fluorobenzyl)-1-((1-(difluoromethyl)cyclopropyl)methyl)-4-fluoro-1H-benzo[d]imidazole-6-carboxylic acid] | 1.71 | 2.5 | –
N#Cc1ccc(COc2cccc(-c3cc(F)c(Cc4nc5ccc(C(=O)O)cc5n4CC4(F)COC4)cc3F)n2)c(F)c1 [Example 270, 2-(4-(6-((4-cyano-2-fluorobenzyl)oxy)pyridin-2-yl)-2,5-difluorobenzyl)-1-((3-fluorooxetan-3-yl)methyl)-1H-benzo[d]imidazole-6-carboxylic acid] | 1.82 | 4.5 | –
COc1cc(C#N)ccc1COc1cccc(-c2cc(F)c(Cc3nc4ccc(C(N)=O)cc4n3CC3(CC#N)CC3)cc2F)n1 [Example 598, 2-(4-(6-((4-cyano-2-methoxybenzyl)oxy)pyridin-2-yl)-2,5-difluorobenzyl)-1-((1-(cyanomethyl)cyclopropyl)methyl)-1H-benzo[d]imidazole-6-carboxamide] | 0.28 | 19.2 | –
COCCn1c(Cc2cc(F)c(-c3ccnc(OCc4ccc(C#N)cc4F)n3)cc2F)nc2ccc(C(=O)O)cc21 [Example 349, 2-(4-(2-((4-cyano-2-fluorobenzyl)oxy)pyrimidin-4-yl)-2,5-difluorobenzyl)-1-(2-methoxyethyl)-1H-benzo[d]imidazole-6-carboxylic acid] | 3.05 | <1.83 | –
COCCn1c(Cc2ccc(-c3cccc(OCc4ccc(C#N)cc4F)n3)cc2N)nc2ccc(C(=O)O)cc21 [Example 64, 2-(2-amino-4-(6-((4-cyano-2-fluorobenzyl)oxy)pyridin-2-yl)benzyl)-1-(2-methoxyethyl)-1H-benzo[d]imidazole-6-carboxylic acid] | 67 | 3.5 | –
O=C(O)c1ccc2nc(Cc3cc(F)c(-c4ccnc(OCc5ccc(Cl)cc5F)n4)cc3F)n(CC3(CF)CC3)c2c1 [Example 433, 2-(4-(2-((4-chloro-2-fluorobenzyl)oxy)pyrimidin-4-yl)-2,5-difluorobenzyl)-1-((1-(fluoromethyl)cyclopropyl)methyl)-1H-benzo[d]imidazole-6-carboxylic acid] | 0.64 | <1.83 | –
N#Cc1ccc(COc2cccc(-c3cc(F)c(Cc4nc5ccc(C(=O)O)cc5n4CC4(COC(F)F)CC4)cc3F)n2)c(F)c1 [Example 730] | 0.98 | 1.83 | –
Cn1nnc(Cn2c(Cc3ccc(-c4cccc(OCc5ccc(C#N)cc5F)n4)cc3F)nc3ccc(C(=O)O)cc32)n1 [Example 226, 2-(4-(6-((4-cyano-2-fluorobenzyl)oxy)pyridin-2-yl)-2-fluorobenzyl)-1-((2-methyl-2H-tetrazol-5-yl)methyl)-1H-benzo[d]imidazole-6-carboxylic acid] | 139 | 3.67 | –
